Experimental findings from patent publication US12383524B2, “Therapeutic compositions of undecylenic acid and arginine” (Wintermute Biomedical, Inc., priority 2018, dated 2025) are described below.

Assay [1] concerns methicillin-resistant Staphylococcus aureus (MRSA). Put plainly: In vitro bactericidal assay against MRSA isolates (viable CFU/mL after treatment). The following applies: average of three MRSA isolates, 24 hours, varying CA concentration.
Description: Note that efficacy is reported in terms of the viable bacterial concentration (in CFU/mL) remaining after 24 hours of treatment with the drug product (in compliance with CLSI guidelines).
In this example, bacteria (MRSA isolates) are put onto fresh plates and allowed to grow for 30 hours. A suspension inoculum is made from the plates (e.g., a 1 McFarland solution in sterile water), from which the turbidity may be optically read. A standard inoculum may then be cultured in media and 100 μL of that solution combined with 100 μL of drug product and grown at various dilutions for 16-20 hrs. Duplicates may then be examined (e.g., following pelleting at 7,000 RPM for 15 min, resuspended in PBS and serial dilutions plated and grown for 24 hrs.). Duplicate plates at multiple dilutions may then be imaged and colonies counted.
For example, in each of these examples in FIG. 20, the fatty acid to amino acid in the compositions was at a ratio of about 1:0.76 (fatty acid:amino acid) by weight when diluted and used to treat MRSA. GS-1, GS-2 and GS-3 all had fatty acid:amino acid aqueous mixtures with approximately 32% w/w of total active pharmaceutical ingredients (APIs), which were diluted at 1:128 in water, resulting in a concentration of about 0.25% w/w total APIs. […]
The test system of another assay is bacteria. Put plainly: Variation of the amino acid combined with UCA, bactericidal effect. Type of assay: cell-based. An excerpt:
Thus in some variations, the amino acid may be limited to a charged (and particularly the positively charged) amino acids, such as amino acid having an electrically charged basic side chain.

`CCCCCCCCCCCCCCCCO` [CA, cetyl alcohol]: the “effect of CA on efficacy of the UCA and LARG composition” value in assay [1] was “clear inhibitory effect”.

Turning to `N=C(N)NCCC[C@@H](N)C(=O)O` [D-Arginine], the “bactericidal effect when used as the amino acid with the fatty acid” value in the assay with bacteria is “ineffective”.
